Biological target: Mtb Lpd (Mycobacterium tuberculosis (strain ATCC 25618 / H37Rv), UniProt P9WHH9)
Format: biochemical
Details: read-out: LPD IC50

Structure (SMILES)	IC50
Cc1cc(S(=O)(=O)N(C)CC(=O)Nc2cc(C)n(C)c(=O)c2)c2[nH]ncc2c1 [Example 17, 2-((N,5-dimethyl-1H-indazole)-7-sulfonamido)-N-(1,6-dimethyl-2-oxo-1,2-dihydropyridin-4-yl)acetamide]	52 nM
Cc1cc(S(=O)(=O)N(CC(=O)Nc2ccn(C)c(=O)c2)C2COC2)c2[nH]ncc2c1 [Example 38, N-(1-methyl-2-oxo-1,2-dihydropyridin-4-yl)-2-((5-methyl-N-(oxetan-3-yl)-1H-indazole)-7-sulfonamido)acetamide]	420 nM
Cc1cc(S(=O)(=O)N(C)CC(=O)NC2CCN(C)CC2)c2n[nH]cc2c1 [Example 53]	963 nM
Cc1cc(S(=O)(=O)N(C)CC(=O)NC2CCCOC2)c2n[nH]cc2c1 (stereo not shown) [Example 54]	90.6 nM
Cc1cc(S(=O)(=O)N(C)CC(=O)N[C@H]2CCc3ccccc32)c2n[nH]cc2c1 [Example 55]	874 nM
Cc1cc(S(=O)(=O)N(C)CC(=O)N[C@@H]2CCc3ccccc32)c2n[nH]cc2c1 [Example 56]	42.6 nM
Cc1cc(S(=O)(=O)N(C)CC(=O)Nc2nc3ccccc3s2)c2n[nH]cc2c1 [Example 58]	31.5 nM
COc1ccc(NC(=O)CN(C)S(=O)(=O)c2cc(C)cc3c[nH]nc23)nc1 [Example 60]	41.5 nM
Cc1cc(S(=O)(=O)N(C)CC(=O)Nc2ccc3ccccc3n2)c2n[nH]cc2c1 [Example 64]	33.5 nM
Cc1cc(S(=O)(=O)N(C)CC(=O)NC2CCOCC2)c2n[nH]cc2c1 [Example 65]	118 nM
Cc1cc(S(=O)(=O)N(C)CC(=O)NC2CCCN(C)C2)c2n[nH]cc2c1 (stereo not shown) [Example 66]	593 nM
Cc1cc(S(=O)(=O)N(C)CC(=O)Nc2cc3ccccc3cn2)c2n[nH]cc2c1 [Example 67]	37.2 nM
Cc1cc(S(=O)(=O)N(C)CC(=O)NC2CCN(C)C(=O)C2)c2n[nH]cc2c1 (stereo not shown) [Example 68]	149 nM
Cc1cc(S(=O)(=O)N2CC[C@H]2C(=O)NC2CCCCC2)c2[nH]ncc2c1 [Example 70, (S)—N-cyclohexyl-1-((5-methyl-1H-indazol-7-yl)sulfonyl)azetidine-2-carboxamide]	279 nM
Cc1cc(S(=O)(=O)N(C)CC(=O)NC2CCCCC2)c2n[nH]cc2c1 [Example 73]	85.8 nM
Cc1cc(S(=O)(=O)N(C)CC(=O)NC2C(=O)Nc3ccccc32)c2n[nH]cc2c1 (stereo not shown) [Example 77]	803 nM
Cc1cc(S(=O)(=O)N(C)CC(=O)NC2C(=O)N(C)c3ccccc32)c2n[nH]cc2c1 (stereo not shown) [Example 79]	779 nM
Cc1cc(S(=O)(=O)N2CC[C@H]2C(=O)NC2COC2)c2[nH]ncc2c1 [Example 80]	285 nM
Cc1cc(S(=O)(=O)N2CCC2C(=O)NCc2ccccc2)c2[nH]ncc2c1 (stereo not shown) [Example 81]	620 nM
Cc1cc(S(=O)(=O)N2CC[C@H]2C(=O)Nc2cc3ccccc3cn2)c2[nH]ncc2c1 [Example 82]	48.9 nM
Cc1cc(S(=O)(=O)N2CC[C@H]2C(=O)Nc2ccc3ccccc3n2)c2[nH]ncc2c1 [Example 84]	27 nM
Cc1cc(S(=O)(=O)N2CC[C@H]2C(=O)Nc2ccc(C#N)c(Cl)c2)c2[nH]ncc2c1 [Example 86]	41.4 nM
Cc1cc(S(=O)(=O)N(C)CC(=O)Nc2ccc3c(c2)OCCN3C2CCOCC2)c2[nH]ncc2c1 [Example 89]	41.9 nM
Cc1cc(S(=O)(=O)N2CC[C@H]2C(=O)Nc2ccn3nccc3c2)c2[nH]ncc2c1 [Example 91]	41 nM
Cc1cc(S(=O)(=O)N2CCC[C@@H](C(=O)Nc3ccn(C)c(=O)c3)C2)c2[nH]ncc2c1 [Example 96, (R)-1-((5-methyl-1H-indazol-7-yl)sulfonyl)-N-(1-methyl-2-oxo-1,2-dihydropyridin-4-yl)piperidine-3-carboxamide]	112 nM
Cc1cc(S(=O)(=O)N(C)CC(=O)Nc2ccn3nc(C)cc3c2)c2[nH]ncc2c1 [Example 104]	157 nM
C#CCNC(=O)CN(C)S(=O)(=O)c1cc(C)cc2cn[nH]c12 [Example 107]	47 nM
Cc1cc(S(=O)(=O)N(C)CC(=O)NCc2cn(C)nn2)c2[nH]ncc2c1 [Example 108]	111 nM

Reference: patent US20240132480A1, “INHIBITORS OF MYCOBACTERIUM TUBERCULOSIS LIPOAMIDE DEHYDROGENASE” (Cornell University, priority 2021, published 2024)
